Assay results published in patent US5066652A, “Thiomethyl and sulfinylmethyl derivatives having gastric acid antisectetory activity and pharmaceutical compositions containing them” (Chiesi Farmaceutici S.p.A., priority 1988, dated 1991).
Where a name gives a salt, the structure may show the parent alone. Read-outs that look alike come from different tables or passages of the source.

Tests used:
[1] = tested on: secretion of hydrochloric acid in the stomach (Shay ulcers); assay: Antisecretory activity - Shay ulcers (pylorus-ligated rat); type: in vivo; conditions: for Emax: Rattus norvegicus, α=1 represents 100% inhibition of gastric acid hypersecretion, read-out: α (approximate value of intrinsic activity); for Emax / ED50: 2 h; for ED50: rat, pylorus ligation, intraduodenal or intravenous; for PR (potency ratio in comparison with Omeprazole): ratio of mean ED50 on the 3 parameters of test compound to mean ED50 of omeprazole
Procedure: Antisecretory activity--Shay ulcers The gastric secretory inhibitory activity of the compounds of general formula (I) was determined in case of hypersecretion induced in the rat by ligation of gastroduodenal junction according to the procedure described by Shay (Shay H. et al, Gasgroenterology 5, 43-61, 1945). […] Thereafter, they were fasted for 24 hours, with water ad libitum, which period was sufficient to assure a good gastric emptying, then laparectomized under light ether anesthesia, so as to allow to effect a pylorus ligation as closer as possible to the gastroduodenal junction. Two hours after the ligation, the animals were killed by means of an ether excess and stomaches were removed. Gastric contents were recovered, after filtration through a gauze, and placed in graduated test-tubes and centrifuged at 3000×g for 15 minutes. The following parameters were evaluated on the surnatant: volume (ml); pH; free acidity by conversion of pH into H^+ μEq by means of Moore table (Ann. New York Acad. Sci. 1967, 866-874); titrable acidity, by titration of an amount with 0.02N NaOH, using phenolphtalein as the indicator. […] The results were expressed as percent inhibition of hypersecretion induced by pylorus ligation in the control rats. The obtained results are reported in table 3 as: ED50 (μmol/kg) calculated on the basis of the equation of the linear tract of does-effect curves obtained with the test compounds on volume, free and titrable acidities; […]

[2] = tested on: secretion of hydrochloric acid in the stomach; assay: Lumen-perfused rat stomach in situ (histamine-induced hypersecretion); type: in vivo; conditions: for ED50: histamine 35 mcg/kg/min, 3 hours; for ED50 / α (intrinsic activity): intraduodenal; for α (intrinsic activity): histamine; for PR = potency ratio: in comparison with omeprazole
Procedure: Lumen-perfused rat stomach in situ The experiments were done according to Ghosh M. N. and Schild H. O. (Br. J. Pharmacol. 13, 54-61, 1958). […] After a midline abdominal incision, a PVC tube was inserted into the stomach via the esophagus and the stomach was perfused with saline (37° C.) at a rate of 1 ml/min. A second tube draining the pylorus was inserted through the abdominal wall for collection of gastric secretion. […] After equilibration of basal secretion an hypersecretion was induced by infusion of histamine 35 mcg/kg/min, through the femoral vein. […] Mean gastric output was determined for a 3 hours test period following drug administration. The last 30 minutes interval prior to dosing was used as a control. The dose-response relationship was established using the maximum inhibition obtained at each individual dose.

[3] = tested on: gastric hemorrhagic lesions induced by absolute ethanol; assay: Protection against gastric lesions induced in rats by necrotizing agents (absolute ethanol); type: in vivo; conditions: po; rat, gavage 30 minutes before 1 ml absolute ethanol; lesion score ≤ 2 considered protected
Procedure: Protection against gastric lesions induced in rats by necrotizing agents
The experiments were done on male rats weighing 260-300 g starved (with free access to water) for 18 hours.
Absolute ethanol was administered by gavage in the volume of 1 ml.
Test substances or the vehicle alone for the controls were given by gavage 30 minutes before the necrotizing agent in a 5% suspension of methylcellulose volume 2.5 ml kg^-1. One hour after administration of the necrotizing agent, the animals were killed and examined for lesions of the glandular portion of the gastric mucosa. The lesions presenting as blackish lesions grouped in patches of varying size, usually parallel to the major axis of the stomach, were scored according to the following arbitrary scale:
1=hyperemic mucosa, or up to 3 small patches;
2=from 4 to 10 small patches;
3=more than 10 small or up to 3 medium-sized patches;
4=from 4 to 6 medium-sized patches;
5=more than 6 medium-sized or up to 3 large patches;
6=from 4 to 6 large patches;
7=from 7 to 10 large patches;
8=more than 10 large patches or extensive necrotic zones.
"Small"0 was defined as up to 2 mm across (max diameter), "medium-sized" as between 2 and 4 mm across and "large" as more than 4 mm across.
Animals with gastric lesion score ≤ 2 were considered protected.
ED50 values were calculated according to Wilcoxon method.
The results are expressed in table 5.

[4] = Toxicity after single administration (acute toxicity, oral); conditions: mouse, in vivo, mice, p.o., lethality 7 days after treatment, Probits method, read-out: Acute Toxicity (DL50 approx. mg/kg p.o.)
Procedure: Toxicity after single administration.
The tests have been carried out in IVA:NMRI (SPF) mice fasted with water ad libitum since 18 hours before treatment.
The compounds were administered by the oral route, at constant volume (10 ml/kg) in a 0.2% aqueous solution of Tween 80.
On the basis of lethality observed 7 days after the treatment, the approximate LD50 were determined according to the Probits method.

stomach of animals = conditions: animals treated over a long period; cited from earlier work
[5] = free acid output, read-out: ED50 free acid output
[6] = secretion volume, read-out: ED50 volume
[7] = titratable acid output, read-out: ED50 titratable acid output
[8] = read-out: ED50 free acid output
[9] = read-out: ED50 titratable acid output

| SMILES | Emax [1] [%] | ED50 [1, 5] [µmol/kg] | ED50 [1, 6] [µmol/kg] | ED50 [1, 7] [µmol/kg] | PR (potency ratio in comparison with Omeprazole) [1] | ED50 [2, 8] [µmol/kg] | ED50 [2, 9] [µmol/kg] | α (intrinsic activity) [2] | PR = potency ratio [2] | ED50 [3] [mg/kg] | LD50 at 168 h [4] [mg/kg] | carcinomas at the bottom of the stomach (stomach of animals) |
| --- | --- | --- | --- | --- | --- | --- | --- | --- | --- | --- | --- | --- |
| CN/C(=N/CCSCc1nc[nH]c1C)NC#N [Cimetidine, reference compound] | 100 | 24.1 | 47.3 | 23.9 | 11,5 | 11.8 | 11.1 | 1 | 5.1 | – | – | – |
| [O-][S+](Cc1ccc2ccccc2n1)c1nc2cccnc2[nH]1 (stereo not drawn) [LI, 2-(2'-quinolylmethylsulfinyl)imidazo-[4,5-b]-pyridine] | 100 | 4.8 | 10.3 | 5.6 | 2,5 | – | – | – | – | 20 | ~750 | – |
| COc1ccc2[nH]c([S+]([O-])Cc3ncc(C)c(OC)c3C)nc2c1 (stereo not drawn) [Omeprazole HCL, reference compound] | – | – | – | – | – | – | – | – | – | – | ~1400 | – |
| COc1ccc2[nH]c([S+]([O-])Cc3ncc(C)c(OC)c3C)nc2c1 (stereo not drawn) [Omeprazole, reference compound] | 100 | 1.8 | 4.2 | 2.3 | – | 2.23 | 2.3 | 1 | – | 73 | – | high incidence of carcinomas |
| Cn1ccnc1SCc1nc2cc(C(=O)c3ccccc3)ccc2[nH]1 [X, 1-methyl-2-[2'-(5'-benzoyl)-benzimidazolylmethylthio]imidazole. 2H3 PO4] | 70 to 80 | 2.7 | 10 | 2.7 | 1,9 | – | – | – | – | – | ~1400 | – |
| CN(C)c1ccccc1CSc1nccn1C [XI, 1-methyl-2-[2'-(N,N-dimethylanilyl)methylthio]imidazole. 2HCl] | 100 | 31.9 | 40 | 29.6 | 12,2 | 60.6 | 40.9 | 1 | 22.4 | 20 | ~450 | – |
| CN(C)c1ccccc1CSc1nccn1-c1cccc(F)c1 [XIX, 1-(3'-fluorophenyl)-2-[2'-(N,N-dimethylanilyl)methylthio]imidazole.2HCl] | 100 | 47.3 | 108 | 64.3 | 26,4 | 32.2 | 26.7 | 1 | 13.0 | 70 | ~1000 | – |
| COc1ccc(C)nc1CSc1ncnc2[nH]cnc12 [XLIII] | 100 | 83 | 89 | 81.6 | 30,6 | – | – | – | – | 60 | – | – |
| COc1ccnc(CSc2nccn2-c2cccc(F)c2)c1C [XX, 1-(3'-fluorophenyl)-2-[2'-(3'-methyl-4'-methoxypyridyl)methylthio]imidazole] | 70 to 80 | 65 | 80 | 65 | 25,3 | – | – | – | – | 50 | – | – |
| Fc1cccc(-n2ccnc2SCc2nc3ccccc3[nH]2)c1 [XXI, 1-(3'-fluorophenyl)-2-[2'-(benzimidazolyl)methylthio]imidazole.2HCl] | 100 | 27 | 38 | 29 | 11,3 | – | – | – | – | 70 | ~900 | – |
| c1ccc(-n2ccnc2SCc2nc3ccccc3[nH]2)cc1 [XXII, 1-phenyl-2-[2'-(benzimidazolyl)methylthio]imidazole.2HCl] | 80 | 16.8 | 30.5 | 22.3 | 8,4 | – | – | – | – | 63 | ~1000 | – |
| Fc1ccc(-n2ccnc2SCc2nc3ccccc3[nH]2)cc1 [XXIV] | 70 to 80 | 12.5 | 20.5 | 15.7 | 5,9 | – | – | – | – | 47 | ~2000 | – |
| COc1ccc(-n2ccnc2SCc2ccccc2N(C)C)cc1 [XXIX, 1-(4'-methoxyphenyl)-2-[2 '-(N,N-dimethylanilyl)methylthio]imidazole.2HCl] | 100 | 86.1 | 144 | 107 | 40,7 | – | – | – | – | – | > 2000 | – |
| CN(C)c1ccccc1CSc1nccn1-c1ccccc1 [XXVIII, 1-phenyl-2-[2'-(N,N-dimethylanilyl)methylthio]imidazole. 2HCl] | 100 | 40.6 | 55.4 | 44.9 | 17,0 | 31.4 | 19.9 | 1 | 11.3 | – | – | – |
